“And” between values parts separate entries of the source, which are not always exact repeats. Equal values may be shown once. Inconclusive results and toxic doses are left out.
Test system: BDF1 mice, Lewis lung carcinoma iv, survival T/C
Assay: NCI In Vivo Anticancer Drug Screen. Data for tumor model Lewis Lung Carcinoma (intravenous) in B6D2F1 (BDF1) mice
Conditions: endpoint: median survival time, higher = longer survival
Protocol: The antitumor activity of compounds was measured in mice bearing transplantable tumors. Survival or tumor size were measured and the results are expressed as the measurement made in the treated group (T) divided by the measurement made in the vehicle treated control group (C). The tumor model used in this assay is Lewis Lung Carcinoma (intravenous) in B6D2F1 (BDF1) mice

[1] = dose: 12.5 mg/kg/injection, schedule: Q01DX009 (ip), vehicle: saline with Tween-80
[2] = dose: 25.0 mg/kg/injection, schedule: Q01DX009 (ip), vehicle: saline with Tween-80
[3] = dose: 50.0 mg/kg/injection, schedule: Q01DX009 (ip), vehicle: saline with Tween-80
[4] = dose: 100.0 mg/kg/injection, schedule: Q01DX009 (ip), vehicle: saline with Tween-80
[5] = dose: 200.0 mg/kg/injection, schedule: Q01DX009 (ip), vehicle: saline with Tween-80
[6] = dose: 12.5 mg/kg/injection, schedule: Q01DX009 (ip), vehicle: saline
[7] = dose: 25.0 mg/kg/injection, schedule: Q01DX009 (ip), vehicle: saline
[8] = dose: 50.0 mg/kg/injection, schedule: Q01DX009 (ip), vehicle: saline
[9] = dose: 100.0 mg/kg/injection, schedule: Q01DX009 (ip), vehicle: saline

Structure (SMILES): O=NN(CCCl)C(=O)NCCCl
- T/C (dose: 1.5 mg/kg/injection, schedule: Q01DX009 (ip), vehicle: Klucel (hydroxypropylcellulose) (HPC)): 122 % of control
- T/C (dose: 3.0 mg/kg/injection, schedule: Q01DX009 (ip), vehicle: Klucel (hydroxypropylcellulose) (HPC)): 305 % of control
- T/C (dose: 6.0 mg/kg/injection, schedule: Q01DX009 (ip), vehicle: Klucel (hydroxypropylcellulose) (HPC)): 163 % of control
- T/C (dose: 10.0 mg/kg/injection, schedule: Q01DX001 (ip), vehicle: saline + alcohol): 116 % of control
- T/C (dose: 12.0 mg/kg/injection, schedule: Q01DX009 (ip), vehicle: Klucel (hydroxypropylcellulose) (HPC)): 304 % of control
- T/C (dose: 20.0 mg/kg/injection, schedule: Q01DX001 (ip), vehicle: saline + alcohol): 124 % of control
- T/C (dose: 20.48 mg/kg/injection, schedule: Q01DX001 (iv), vehicle: saline + alcohol): 215 % of control
- T/C (dose: 25.6 mg/kg/injection, schedule: Q01DX001 (iv), vehicle: saline + alcohol): 268 % of control
- T/C (dose: 32.0 mg/kg/injection, schedule: Q01DX001 (iv), vehicle: saline + alcohol): 267 % of control
- T/C (dose: 40.0 mg/kg/injection, schedule: Q01DX001 (ip), vehicle: saline + alcohol): 109 % of control
- T/C (dose: 40.0 mg/kg/injection, schedule: Q01DX001 (iv), vehicle: saline + alcohol): 268 % of control
- T/C (dose: 50.0 mg/kg/injection, schedule: Q01DX001 (ip), vehicle: saline + alcohol): 117 % of control
- T/C (dose: 50.0 mg/kg/injection, schedule: Q01DX001 (iv), vehicle: saline + alcohol): 268 % of control
- T/C (dose: 62.5 mg/kg/injection, schedule: Q01DX001 (iv), vehicle: saline + alcohol): 268 % of control

Structure (SMILES): NCCCNCCSP(=O)(O)O
- T/C (dose: 300.0 mg/kg/injection, schedule: Q01DX001 (ip), vehicle: saline): 88 % of control
- T/C (dose: 500.0 mg/kg/injection, schedule: Q01DX001 (ip), vehicle: saline): 88 % of control

Structure (SMILES): N#CCCSC(=S)C1CCCC1=N (centres undefined)
- T/C [1]: 105 % of control
- T/C [2]: 101 % of control
- T/C [3]: 106 % of control
- T/C [4]: 93 % of control
- T/C [5]: 98 % of control
- T/C (dose: 400.0 mg/kg/injection, schedule: Q01DX009 (ip), vehicle: saline with Tween-80): 106 % of control

Structure (SMILES): O=c1[nH]c(=O)n([C@H]2CCCO2)cc1F
- T/C (dose: 25.0 mg/kg/injection, schedule: Q01DX009 (ip), vehicle: Klucel (hydroxypropylcellulose) (HPC)): 106 % of control
- T/C (dose: 50.0 mg/kg/injection, schedule: Q01DX009 (ip), vehicle: Klucel (hydroxypropylcellulose) (HPC)): 104 % of control
- T/C (dose: 100.0 mg/kg/injection, schedule: Q01DX009 (ip), vehicle: Klucel (hydroxypropylcellulose) (HPC)): 100 % of control

Structure (SMILES): O=C(CN1CC1)NCCCCCCCCNC(=O)CN1CC1
- T/C (dose: 3.13 mg/kg/injection, schedule: Q01DX009 (ip), vehicle: Klucel (hydroxypropylcellulose) (HPC)): 115 % of control
- T/C (dose: 6.25 mg/kg/injection, schedule: Q01DX009 (ip), vehicle: Klucel (hydroxypropylcellulose) (HPC)): 112 % of control
- T/C (dose: 12.5 mg/kg/injection, schedule: Q01DX009 (ip), vehicle: Klucel (hydroxypropylcellulose) (HPC)): 119 % of control

Structure (SMILES): CC1=CC(=NN=c2cc(C)n([O-])c(C)c2)C=C(C)[N+]1=O
- T/C [1]: 102 % of control
- T/C [2]: 100 % of control
- T/C [3]: 104 % of control
- T/C [4]: 105 % of control
- T/C [5]: 86 % of control

Structure (SMILES): Nc1ncnc2nc[nH]c12
- T/C (dose: 32.0 mg/kg/injection, schedule: Q01DX009 (ip), vehicle: Klucel (hydroxypropylcellulose) (HPC)): 99 % of control
- T/C (dose: 64.0 mg/kg/injection, schedule: Q01DX009 (ip), vehicle: Klucel (hydroxypropylcellulose) (HPC)): 99 % of control
- T/C (dose: 128.0 mg/kg/injection, schedule: Q01DX009 (ip), vehicle: Klucel (hydroxypropylcellulose) (HPC)): 98 % of control

Structure (SMILES): CC1=C(/C=C/C(C)=C/C=C/C(C)=C/C=O)C(C)(C)CCC1
- T/C (dose: 4.0 mg/kg/injection, schedule: Q01DX005 (ip), vehicle: saline with Tween-80): 96 % of control
- T/C (dose: 8.0 mg/kg/injection, schedule: Q01DX005 (ip), vehicle: saline with Tween-80): 96 % of control and 109 % of control
- T/C (dose: 16.0 mg/kg/injection, schedule: Q01DX005 (ip), vehicle: saline with Tween-80): 95 % of control and 116 % of control
- T/C (dose: 32.0 mg/kg/injection, schedule: Q01DX005 (ip), vehicle: saline with Tween-80): 108 % of control
- T/C (dose: 64.0 mg/kg/injection, schedule: Q01DX005 (ip), vehicle: saline with Tween-80): 95 % of control and 96 % of control

Structure (SMILES): Clc1cc(Cl)nc(N2CC2)n1
- T/C (dose: 1.25 mg/kg/injection, schedule: Q01DX009 (ip), vehicle: saline): 91 % of control
- T/C (dose: 2.5 mg/kg/injection, schedule: Q01DX009 (ip), vehicle: saline): 103 % of control
- T/C (dose: 5.0 mg/kg/injection, schedule: Q01DX009 (ip), vehicle: saline with Tween-80): 114 % of control
- T/C (dose: 5.0 mg/kg/injection, schedule: Q01DX009 (ip), vehicle: saline): 103 % of control

Structure (SMILES): Nc1cc(Cl)c2[nH]cnc2n1
- T/C (dose: 6.25 mg/kg/injection, schedule: Q01DX009 (ip), vehicle: distilled water + Tween-80): 106 % of control
- T/C (dose: 12.5 mg/kg/injection, schedule: Q01DX009 (ip), vehicle: distilled water + Tween-80): 98 % of control
- T/C (dose: 25.0 mg/kg/injection, schedule: Q01DX009 (ip), vehicle: distilled water + Tween-80): 109 % of control
- T/C (dose: 50.0 mg/kg/injection, schedule: Q01DX009 (ip), vehicle: distilled water + Tween-80): 113 % of control
- T/C (dose: 100.0 mg/kg/injection, schedule: Q01DX009 (ip), vehicle: distilled water + Tween-80): 107 % of control

Structure (SMILES): O=C1c2ccccc2C(=O)c2c(NCCNCCO)ccc(O)c21
- T/C (dose: 2.5 mg/kg/injection, schedule: Q01DX009 (ip), vehicle: suspension in saline): 92 % of control
- T/C (dose: 5.0 mg/kg/injection, schedule: Q01DX009 (ip), vehicle: suspension in saline): 88 % of control
- T/C (dose: 10.0 mg/kg/injection, schedule: Q01DX009 (ip), vehicle: suspension in saline): 88 % of control
- T/C (dose: 20.0 mg/kg/injection, schedule: Q01DX009 (ip), vehicle: suspension in saline): 97 % of control
- T/C (dose: 40.0 mg/kg/injection, schedule: Q01DX009 (ip), vehicle: suspension in saline): 103 % of control
- T/C (dose: 80.0 mg/kg/injection, schedule: Q01DX009 (ip), vehicle: suspension in saline): 102 % of control

Structure (SMILES): O=C1NC(O)CCN1C1OC(CO)C(O)C1O (centres undefined)
- T/C [6]: 110 % of control
- T/C [7]: 100 % of control
- T/C [8]: 118 % of control
- T/C [9]: 118 % of control
- T/C (dose: 200.0 mg/kg/injection, schedule: Q01DX009 (ip), vehicle: saline): 98 % of control
- T/C (dose: 400.0 mg/kg/injection, schedule: Q01DX009 (ip), vehicle: saline): 102 % of control
- T/C (dose: 800.0 mg/kg/injection, schedule: Q01DX009 (ip), vehicle: saline): 101 % of control

Structure (SMILES): CCS(=O)(=O)OCCCCOS(=O)(=O)CC
- T/C (dose: 3.13 mg/kg/injection, schedule: Q01DX009 (ip), vehicle: saline): 99 % of control
- T/C (dose: 6.25 mg/kg/injection, schedule: Q01DX009 (ip), vehicle: saline): 103 % of control

Structure (SMILES): CC12CC(C(=O)O)C3(O)CC(C)(C1)CC(C)(C2)C3 (centres undefined) (tested in a mixture with another compound)
- T/C [1]: 99 % of control
- T/C [2]: 86 % of control
- T/C [3]: 89 % of control
- T/C [4]: 94 % of control
- T/C [5]: 99 % of control

Structure (SMILES): CC(=O)OCC12C3CC(=O)OC1C(OC(=O)C=C(C)C)C1C(C)=CC(=O)C(OC(C)=O)C1(C)C2C(=O)C(OC(C)=O)C3C (centres undefined)
- T/C (dose: 0.25 mg/kg/injection, schedule: Q01DX009 (ip), vehicle: saline): 86 % of control
- T/C (dose: 0.5 mg/kg/injection, schedule: Q01DX009 (ip), vehicle: saline): 107 % of control
- T/C (dose: 1.0 mg/kg/injection, schedule: Q01DX009 (ip), vehicle: saline): 91 % of control
- T/C (dose: 2.0 mg/kg/injection, schedule: Q01DX009 (ip), vehicle: saline): 102 % of control
- T/C (dose: 4.0 mg/kg/injection, schedule: Q01DX009 (ip), vehicle: saline): 113 % of control

Structure (SMILES): C[C@]12CC[C@H]3[C@@H](CC[C@]4(O)C[C@@H](O)CC[C@]34C=O)[C@@]1(O)CC[C@@H]2C1=CC(=O)OC1
- T/C [6]: 96 % of control
- T/C [7]: 108 % of control
- T/C [8]: 108 % of control
- T/C [9]: 100 % of control

Structure (SMILES): Cc1cc(NCCCCCCCNc2cc(C)nc3cc(N)ccc23)c2ccc(N)cc2n1
- T/C (dose: 0.78 mg/kg/injection, schedule: Q01DX009 (ip), vehicle: saline with Tween-80): 100 % of control
- T/C (dose: 1.56 mg/kg/injection, schedule: Q01DX009 (ip), vehicle: saline with Tween-80): 102 % of control
- T/C (dose: 3.12 mg/kg/injection, schedule: Q01DX009 (ip), vehicle: saline with Tween-80): 102 % of control
- T/C (dose: 6.25 mg/kg/injection, schedule: Q01DX009 (ip), vehicle: saline with Tween-80): 110 % of control
- T/C [1]: 96 % of control

— PubChem BioAssay AID274 (DTP/NCI, 2004)
